The test has as its target T1, Tyrosine-protein phosphatase non-receptor type 1 (Homo sapiens, UniProt P18031).
T1 sequence (P18031 whole entry): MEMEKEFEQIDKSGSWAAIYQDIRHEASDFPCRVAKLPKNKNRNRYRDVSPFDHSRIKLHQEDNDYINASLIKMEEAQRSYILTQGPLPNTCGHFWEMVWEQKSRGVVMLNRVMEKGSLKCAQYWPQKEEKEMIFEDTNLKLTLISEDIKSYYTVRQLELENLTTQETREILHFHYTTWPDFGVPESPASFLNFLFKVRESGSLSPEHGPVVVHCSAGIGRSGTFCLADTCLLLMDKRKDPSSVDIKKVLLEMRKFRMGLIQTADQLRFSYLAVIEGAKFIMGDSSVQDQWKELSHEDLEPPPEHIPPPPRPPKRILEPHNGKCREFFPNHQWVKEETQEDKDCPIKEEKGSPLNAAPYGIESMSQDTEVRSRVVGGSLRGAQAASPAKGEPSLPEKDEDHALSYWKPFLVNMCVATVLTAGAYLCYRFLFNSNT
The experiment in a line: Inhibition of PTP1B (unknown origin).

For `CC1(C)CC[C@]2(C(=O)O)CC[C@]3(C)C(=CC[C@@H]4[C@@]5(C)CC[C@H](Cc6ccccc6)C(C)(C)[C@@H]5CC[C@]43C)[C@@H]2C1`, the IC50 is 2670 nM (read-out: IC50) and 2670 nM (read-out: pIC50 (converted)).
Take `CC1(C)CC[C@]2(C(=O)O)CC[C@]3(C)C(=CC[C@@H]4[C@@]5(C)CC[C@H](Cc6ccccc6C(=O)O)C(C)(C)[C@@H]5CC[C@]43C)[C@@H]2C1`: the IC50 (read-out: IC50) worked out at 2720 nM and the IC50 (read-out: pIC50 (converted)) is 2720 nM.
On to `CC1(C)CC[C@]2(CCCCC(=O)NC(Cc3ccccc3)C(=O)O)CC[C@]3(C)C(=CC[C@@H]4[C@@]5(C)CC[C@H](OCc6ccc(C(=O)O)cc6)C(C)(C)[C@@H]5CC[C@]43C)[C@@H]2C1` (some centres not stated), for which the IC50 is 150 nM (read-out: IC50) and 150 nM (read-out: pIC50 (converted)).
With `COc1ccc(CC(NC(=O)C[C@]23CCC(C)(C)C[C@H]2C2=CC[C@@H]4[C@@]5(C)CC[C@H](O)C(C)(C)[C@@H]5CC[C@@]4(C)[C@]2(C)CC3)C(=O)O)cc1OC` (some centres not stated), the IC50 by setting is: (read-out: IC50) 820 nM; (read-out: pIC50 (converted)) 820 nM.
As for `COc1cc(CC(NC(=O)C[C@]23CCC(C)(C)C[C@H]2C2=CC[C@@H]4[C@@]5(C)CC[C@H](O)C(C)(C)[C@@H]5CC[C@@]4(C)[C@]2(C)CC3)C(=O)O)cc(OC)c1` (some centres not stated), the IC50 (read-out: IC50) came out at 630 nM and the IC50 (read-out: pIC50 (converted)) is 630 nM.
`Cc1ccccc1CC(NC(=O)C[C@]12CCC(C)(C)C[C@H]1C1=CC[C@@H]3[C@@]4(C)CC[C@H](O)C(C)(C)[C@@H]4CC[C@@]3(C)[C@]1(C)CC2)C(=O)O` (some centres not stated): the IC50 by setting is: (read-out: IC50) 550 nM; (read-out: pIC50 (converted)) 550 nM.
Regarding `Cc1ccc(CC(NC(=O)C[C@]23CCC(C)(C)C[C@H]2C2=CC[C@@H]4[C@@]5(C)CC[C@H](O)C(C)(C)[C@@H]5CC[C@@]4(C)[C@]2(C)CC3)C(=O)O)cc1` (some centres not stated), the IC50 runs as follows: (read-out: IC50) 650 nM; (read-out: pIC50 (converted)) 650 nM.
In the case of `COc1ccccc1CC(NC(=O)C[C@]12CCC(C)(C)C[C@H]1C1=CC[C@@H]3[C@@]4(C)CC[C@H](O)C(C)(C)[C@@H]4CC[C@@]3(C)[C@]1(C)CC2)C(=O)O` (some centres not stated), the IC50 was 530 nM (read-out: IC50) and 530 nM (read-out: pIC50 (converted)).
For `COc1cccc(CC(NC(=O)C[C@]23CCC(C)(C)C[C@H]2C2=CC[C@@H]4[C@@]5(C)CC[C@H](O)C(C)(C)[C@@H]5CC[C@@]4(C)[C@]2(C)CC3)C(=O)O)c1` (some centres not stated), the IC50 was 520 nM (read-out: IC50) and 520 nM (read-out: pIC50 (converted)).
As for `COc1ccc(CC(NC(=O)C[C@]23CCC(C)(C)C[C@H]2C2=CC[C@@H]4[C@@]5(C)CC[C@H](O)C(C)(C)[C@@H]5CC[C@@]4(C)[C@]2(C)CC3)C(=O)O)cc1` (some centres not stated), the IC50 was 600 nM (read-out: IC50) and 600 nM (read-out: pIC50 (converted)).
Regarding `CC1(C)CC[C@]2(CC(=O)NC(Cc3ccc4c(c3)OCO4)C(=O)O)CC[C@]3(C)C(=CC[C@@H]4[C@@]5(C)CC[C@H](O)C(C)(C)[C@@H]5CC[C@]43C)[C@@H]2C1` (some centres not stated), the IC50 runs as follows: (read-out: IC50) 440 nM; (read-out: pIC50 (converted)) 440 nM.
Take `COc1cccc(CC(NC(=O)C[C@]23CCC(C)(C)C[C@H]2C2=CC[C@@H]4[C@@]5(C)CC[C@H](O)C(C)(C)[C@@H]5CC[C@@]4(C)[C@]2(C)CC3)C(=O)O)c1OC` (some centres not stated): the IC50 runs as follows: (read-out: IC50) 660 nM; (read-out: pIC50 (converted)) 660 nM.
Regarding `CC1(C)CC[C@]2(C(=O)OCCCCCCCCCCCCC(=O)O)CC[C@]3(C)C(=CC[C@@H]4[C@@]5(C)CC[C@H](O)C(C)(C)[C@@H]5CC[C@]43C)[C@@H]2C1`, the IC50 runs as follows: (read-out: IC50) 590 nM; (read-out: pIC50 (converted)) 590 nM.
Regarding `CC1(C)CC[C@]2(CC(=O)NC(Cc3ccccc3)C(=O)O)CC[C@]3(C)C(=CC[C@@H]4[C@@]5(C)CC[C@H](O)C(C)(C)[C@@H]5CC[C@]43C)[C@@H]2C1` (some centres not stated), the IC50 by setting is: (read-out: IC50) 570 nM; (read-out: pIC50 (converted)) 570 nM.
As for `CC1(C)CC[C@]2(CC(=O)NC(Cc3cnc[nH]3)C(=O)O)CC[C@]3(C)C(=CC[C@@H]4[C@@]5(C)CC[C@H](O)C(C)(C)[C@@H]5CC[C@]43C)[C@@H]2C1` (some centres not stated), the IC50 (read-out: IC50) was 4620 nM and the IC50 (read-out: pIC50 (converted)) is 4620 nM.
`CC1(C)CC[C@]2(CC(=O)NC(CC3=CCc4ccccc43)C(=O)O)CC[C@]3(C)C(=CC[C@@H]4[C@@]5(C)CC[C@H](O)C(C)(C)[C@@H]5CC[C@]43C)[C@@H]2C1` (some centres not stated): the IC50 by setting is: (read-out: IC50) 590 nM; (read-out: pIC50 (converted)) 590 nM.
Take `CSCCC(NC(=O)C[C@]12CCC(C)(C)C[C@H]1C1=CC[C@@H]3[C@@]4(C)CC[C@H](O)C(C)(C)[C@@H]4CC[C@@]3(C)[C@]1(C)CC2)C(=O)O` (some centres not stated): the IC50 was 550 nM (read-out: IC50) and 550 nM (read-out: pIC50 (converted)).
For `CC1(C)CC[C@]2(CC(=O)NC(Cc3ccccc3Cl)C(=O)O)CC[C@]3(C)C(=CC[C@@H]4[C@@]5(C)CC[C@H](O)C(C)(C)[C@@H]5CC[C@]43C)[C@@H]2C1` (some centres not stated), the IC50 was 560 nM (read-out: IC50) and 560 nM (read-out: pIC50 (converted)).
In the case of `CC1(C)CC[C@]2(CC(=O)NC(Cc3cccc(Cl)c3)C(=O)O)CC[C@]3(C)C(=CC[C@@H]4[C@@]5(C)CC[C@H](O)C(C)(C)[C@@H]5CC[C@]43C)[C@@H]2C1` (some centres not stated), the IC50 was 510 nM (read-out: IC50) and 510 nM (read-out: pIC50 (converted)).
With `CC1(C)CC[C@]2(CC(=O)NC(Cc3ccc(Cl)cc3)C(=O)O)CC[C@]3(C)C(=CC[C@@H]4[C@@]5(C)CC[C@H](O)C(C)(C)[C@@H]5CC[C@]43C)[C@@H]2C1` (some centres not stated), the IC50 (read-out: IC50) came out at 610 nM and the IC50 (read-out: pIC50 (converted)) is 610 nM.
Take `CC1(C)CC[C@]2(CC(=O)NC(Cc3ccc(F)cc3)C(=O)O)CC[C@]3(C)C(=CC[C@@H]4[C@@]5(C)CC[C@H](O)C(C)(C)[C@@H]5CC[C@]43C)[C@@H]2C1` (some centres not stated): the IC50 runs as follows: (read-out: IC50) 570 nM; (read-out: pIC50 (converted)) 570 nM.
Consider `CC1(C)CC[C@]2(CC(=O)NC(Cc3ccc([N+](=O)[O-])cc3)C(=O)O)CC[C@]3(C)C(=CC[C@@H]4[C@@]5(C)CC[C@H](O)C(C)(C)[C@@H]5CC[C@]43C)[C@@H]2C1` (some centres not stated), for which the IC50 by setting is: (read-out: IC50) 450 nM; (read-out: pIC50 (converted)) 450 nM.
As to `CC1(C)CC[C@]2(C(=O)OCCC(=O)O)CC[C@]3(C)C(=CC[C@@H]4[C@@]5(C)CC[C@H](O)C(C)(C)[C@@H]5CC[C@]43C)[C@@H]2C1`, the IC50 runs as follows: (read-out: IC50) 2100 nM; (read-out: pIC50 (converted)) 2100 nM.
`CC1(C)CC[C@]2(C(=O)OCCCCC(=O)O)CC[C@]3(C)C(=CC[C@@H]4[C@@]5(C)CC[C@H](O)C(C)(C)[C@@H]5CC[C@]43C)[C@@H]2C1`: the IC50 (read-out: IC50) came out at 1330 nM and the IC50 (read-out: pIC50 (converted)) was 1330 nM.
As to `CC1(C)CC[C@]2(C(=O)OCCCCCCC(=O)O)CC[C@]3(C)C(=CC[C@@H]4[C@@]5(C)CC[C@H](O)C(C)(C)[C@@H]5CC[C@]43C)[C@@H]2C1`, the IC50 (read-out: IC50) amounted to 880 nM and the IC50 (read-out: pIC50 (converted)) is 880 nM.
Take `CC1(C)CC[C@]2(C(=O)OCCCCCCCCC(=O)O)CC[C@]3(C)C(=CC[C@@H]4[C@@]5(C)CC[C@H](O)C(C)(C)[C@@H]5CC[C@]43C)[C@@H]2C1`: the IC50 is 780 nM (read-out: IC50) and 780 nM (read-out: pIC50 (converted)).
For `CC1(C)CC[C@]2(C(=O)OCCCCCCCCCCC(=O)O)CC[C@]3(C)C(=CC[C@@H]4[C@@]5(C)CC[C@H](O)C(C)(C)[C@@H]5CC[C@]43C)[C@@H]2C1`, the IC50 by setting is: (read-out: IC50) 720 nM; (read-out: pIC50 (converted)) 720 nM.
As to `CC1(C)CC[C@]2(C(=O)NC(Cc3ccccc3)C(=O)O)CC[C@]3(C)C(=CC[C@@H]4[C@@]5(C)CC[C@H](O)C(C)(C)[C@@H]5CC[C@]43C)[C@@H]2C1` (some centres not stated), the IC50 is 3310 nM (read-out: IC50) and 3310 nM (read-out: pIC50 (converted)).
For `CC1(C)CC[C@]2(C(=O)NC(CCC(=O)O)C(=O)O)CC[C@]3(C)C(=CC[C@@H]4[C@@]5(C)CC[C@H](O)C(C)(C)[C@@H]5CC[C@]43C)[C@@H]2C1` (some centres not stated), the IC50 by setting is: (read-out: IC50) 16400 nM; (read-out: pIC50 (converted)) 16400 nM.
For `CC1(C)CC[C@]2(C(=O)O)CC[C@]3(C)C(=CC[C@@H]4[C@@]5(C)CC[C@H](OCc6ccccc6C(=O)O)C(C)(C)[C@@H]5CC[C@]43C)[C@@H]2C1`, the IC50 is, setting by setting: (read-out: IC50) 4580 nM; (read-out: pIC50 (converted)) 4580 nM.
Take `CC1(C)CC[C@]2(C(=O)Nc3ccc(C(=O)O)cc3)CC[C@]3(C)C(=CC[C@@H]4[C@@]5(C)CC[C@H](O)C(C)(C)[C@@H]5CC[C@]43C)[C@@H]2C1`: the IC50 runs as follows: (read-out: IC50) 3090 nM; (read-out: pIC50 (converted)) 3090 nM.

Source of the values: ChEMBL document CHEMBL3045057, “2-D QSAR studies of steroidal natural products oleanic acid and their semisynthetic derivatives as potent protein tyrosine phosphatase 1B inhibitors” (Med Chem Res, 2012).
